Drawing on PMC7534598 (iScience, 2020), this text covers inhibition and IC50 for four compounds.

In assay [1] the target is T1, furin (Homo sapiens, UniProt P09958). The assay can be described thus: enzyme inhibition at a single concentration of […]. Format: biochemical. The settings on record: read-out: % inhibition at 100 μM.
Assay [2] concerns the target T1, furin. The class given is biochemical.

A value given as a limit tells only on which side of the number the result lay.

T1 sequence (P09958 108-794): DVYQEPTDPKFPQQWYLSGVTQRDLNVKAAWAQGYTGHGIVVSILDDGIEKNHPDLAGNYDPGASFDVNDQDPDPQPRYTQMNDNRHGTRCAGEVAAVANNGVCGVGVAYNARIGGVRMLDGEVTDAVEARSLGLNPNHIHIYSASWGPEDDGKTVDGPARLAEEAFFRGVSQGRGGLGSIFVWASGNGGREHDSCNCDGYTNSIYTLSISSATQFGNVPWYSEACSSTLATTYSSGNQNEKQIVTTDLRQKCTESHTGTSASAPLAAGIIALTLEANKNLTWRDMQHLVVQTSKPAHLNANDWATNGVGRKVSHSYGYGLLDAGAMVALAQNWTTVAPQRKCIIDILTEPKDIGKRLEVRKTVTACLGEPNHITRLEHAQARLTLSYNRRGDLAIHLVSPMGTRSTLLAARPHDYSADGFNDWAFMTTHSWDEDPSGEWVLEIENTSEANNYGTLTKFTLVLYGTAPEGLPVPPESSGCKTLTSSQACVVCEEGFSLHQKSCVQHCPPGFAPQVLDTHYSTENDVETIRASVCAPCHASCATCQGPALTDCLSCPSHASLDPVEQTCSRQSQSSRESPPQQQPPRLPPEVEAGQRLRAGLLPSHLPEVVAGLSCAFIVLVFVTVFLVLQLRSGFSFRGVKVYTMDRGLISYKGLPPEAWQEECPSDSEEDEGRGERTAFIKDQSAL

The term inhibition denotes the percentage by which the read-out fell short of the control. Regarding `Nc1nc(N)c2nc(CNc3ccc(C(=O)N[C@@H](CCC(=O)O)C(=O)O)cc3)cnc2n1` [aminopterin], the inhibition at 100 µM at furin [1] is greater than 70%.
In the case of `COc1cc(C2Oc3cc([C@H]4Oc5cc(O)cc(O)c5C(=O)[C@@H]4O)ccc3OC2CO)ccc1O` (stereo partly shown) [silybin], the inhibition at 100 µM at furin [1] was greater than 70%.
With `CN(Cc1cnc2nc(N)nc(N)c2n1)c1ccc(C(=O)N[C@@H](CCC(=O)O)C(=O)O)cc1` [methotrexate], on furin [1], the inhibition at 100 µM is greater than 70%.
One may read the IC50 as the concentration at which inhibition is half-maximal. A low value points to greater potency. In the case of `N=C(N)c1ccc(/N=N/Nc2ccc(C(=N)N)cc2)cc1` [diminazene], inhibition on furin [2] was half-maximal at 5.42 ± 0.11 µM (IC50).
